Results on nine molecules are retold here after patent US20120114588A1, “IBAT INHIBITORS FOR TREATMENT OF METABOLIC DISORDERS AND RELATED CONDITIONS” (ALBIREO AB, priority 2010, published 2012).

By IC50 is commonly meant the concentration that gives 50% inhibition. Higher therefore signals weaker potency.

This assay deals with T1, Ileal Bile Acid Transporter Human (Homo sapiens, UniProt Q12908).
T1 construct: expressed in transfected cells; host or cells: HEK
T1 sequence (Q12908 1-348): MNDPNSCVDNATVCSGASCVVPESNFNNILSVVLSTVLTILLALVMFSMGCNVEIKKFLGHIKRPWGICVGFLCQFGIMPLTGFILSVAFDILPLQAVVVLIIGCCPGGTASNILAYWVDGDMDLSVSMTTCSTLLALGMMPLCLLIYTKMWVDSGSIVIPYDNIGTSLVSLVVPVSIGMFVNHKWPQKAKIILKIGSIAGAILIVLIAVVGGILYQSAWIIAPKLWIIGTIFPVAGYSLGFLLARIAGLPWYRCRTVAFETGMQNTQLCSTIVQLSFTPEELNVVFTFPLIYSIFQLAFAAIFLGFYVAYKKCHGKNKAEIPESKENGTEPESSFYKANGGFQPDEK
Put plainly: ISBT Hu HEK Uptake SPA: Human HEK Glycocholic acid Uptake Radiometric SPA. The format is cell-based. The conditions noted are these: human IBAT in HEK cells. The method, then:
ISBT Hu HEK Uptake SPA 13203 IBAT HUM Ileal Bile Acid Transporter Human HEK Glycocholic acid Uptake Radiometric—SPA Inhibitor IC50 Mean IC50 (nM) was determined for the compounds of examples 1-14
In turn, `CCCCC1(CCCC)CN(c2ccccc2)c2cc(SC)c(OCC(=O)N[C@@H](C(=O)NCC(=O)O)c3ccccc3)cc2S(=O)(=O)N1` [Example 1, 1,1-Dioxo-3,3-dibutyl-5-phenyl-7-methylthio-8-(N-{(R)-α-[N-(carboxymethyl)carbamoyl]benzyl}carbamovlmethoxv)-2,3,4,5-tetrahvdro-1. 2. 5-benzothiadiazepine] had a half-maximal inhibitory concentration (IC50) of 0.45 nM.

`CCCCC1(CCCC)CN(c2ccccc2)c2cc(SC)c(OCC(=O)N[C@@H](C(=O)N[C@@H](CSC)C(=O)O)c3ccccc3)cc2S(=O)(=O)N1` [Example 4, 1,1-Dioxo-3,3-dibutyl-5-phenyl-7-methylthio-8-(N-{(R)-α-[N-((R)-1-carboxy-2-methylthioethyl)carbamoyl]benzyl}carbamoylmethoxy)-2,3,4,5-tetrahydro-1,2,5-benzothiadiazepine] yielded an IC50 of 0.35 nM.

With `CCCCC1(CCCC)CN(c2ccccc2)c2cc(SC)c(OCC(=O)N[C@@H](C(=O)N[C@@H](C)C(=O)O)c3ccccc3)cc2S(=O)(=O)N1` [Example 10, 1,1-Dioxo-3,3-dibutyl-5-phenyl-7-methylthio-8-(N-{(R)-α-[N-((S)-1-carboxyethyl)carbamoyl]benzyl}carbamoylmethoxy)-2,3,4,5-tetrahydro-1,2,5-benzothiadiazepine], the IC50 was found to be 0.2 nM.

Take `CCCCC1(CCCC)CN(c2ccccc2)c2cc(SC)c(OCC(=O)N[C@@H](C(=O)N[C@H](C(=O)O)[C@@H](C)O)c3ccc(O)cc3)cc2S(=O)(=O)N1` [Example 8, 1,1-Dioxo-3,3-dibutyl-5-phenyl-7-methylthio-8-(N-{(R)-α-[N-((S)-1-carboxy-2-(R)-hydroxypropyl)carbamoyl]-4-hydroxybenzyl}carbamoylmethoxy)-2,3,4,5-tetrahydro-1,2,5-benzothiadiazepine]: the midpoint of inhibition, the IC50, lay at 0.11 nM.

Regarding `CCCCC1(CCCC)CN(c2ccccc2)c2cc(SC)c(OCC(=O)N[C@@H](C(=O)N[C@@H](C)C(=O)O)c3ccccc3)cc2S(=O)(=O)C1` [Example 2, 1,1-Dioxo-3,3-dibutyl-5-phenyl-7-methylthio-8-(N-{(R)-α-[N′-((S)-1-carboxyethyl)carbamoyl]benzyl}carbamoylmethoxy)-2,3,4,5-tetrahydro-1,5-benzothiazepine], the IC50 is 0.39 nM.

`CCCCC1(CCCC)CN(c2ccccc2)c2cc(SC)c(OCC(=O)N[C@@H](C(=O)N[C@@H](CC)C(=O)O)c3ccccc3)cc2S(=O)(=O)N1` [Example 3, 1,1-Dioxo-3,3-dibutyl-5-phenyl-7-methylthio-8-(N-{(R)-α-[N-((S)-1-carboxypropyl)carbamoyl]benzyl}carbamoylmethoxy)-2,3,4,5-tetrahydro-1,2,5-benzothiadiazepine] showed an IC50 of 0.18 nM.

As to `CCCCC1(CCCC)CN(c2ccccc2)c2cc(SC)c(OCC(=O)N[C@@H](C(=O)N[C@@H](CC)C(=O)O)c3ccc(O)cc3)cc2S(=O)(=O)N1` [Example 5, 1,1-Dioxo-3,3-dibutyl-5-phenyl-7-methylthio-8-(N-{(R)-α-[N-((S)-1-carboxypropyl)carbamoyl]-4-hydroxybenzyl}carbamoylmethoxy)-2,3,4,5-tetrahydro-1,2,5-benzothiadiazepine], half-maximal inhibition (IC50) required 0.16 nM.

As to `CCCCC1(CCCC)CN(c2ccccc2)c2cc(SC)c(OCC(=O)N[C@@H](C(=O)N[C@@H](C)C(=O)O)c3ccc(O)cc3)cc2S(=O)(=O)N1` [Example 12], the IC50 was 0.3 nM.

For the molecule `CCCCC1(CCCC)CN(c2ccccc2)c2cc(SC)c(OCC(=O)N[C@@H](C(=O)N[C@H](C(=O)O)C(C)C)c3ccccc3)cc2S(=O)(=O)N1` [Example 7, 1,1-Dioxo-3,3-dibutyl-5-phenyl-7-methylthio-8-(N-{(R)-α-[N-((S)-1-carboxy-2-methylpropyl)carbamoyl]benzyl}carbamoylmethoxy)-2,3,4,5-tetrahydro-1,2,5-benzothiadiazepine], it took 0.36 nM to reach half-maximal inhibition (IC50).
